Results reported in paper PMC2219267 (The Journal of General Physiology, 1996).
Like-named read-outs stand apart in the source and are kept apart here.

Molecular target: T1, band 3 (Homo sapiens, UniProt P02730)
T1 sequence (P02730 1-911): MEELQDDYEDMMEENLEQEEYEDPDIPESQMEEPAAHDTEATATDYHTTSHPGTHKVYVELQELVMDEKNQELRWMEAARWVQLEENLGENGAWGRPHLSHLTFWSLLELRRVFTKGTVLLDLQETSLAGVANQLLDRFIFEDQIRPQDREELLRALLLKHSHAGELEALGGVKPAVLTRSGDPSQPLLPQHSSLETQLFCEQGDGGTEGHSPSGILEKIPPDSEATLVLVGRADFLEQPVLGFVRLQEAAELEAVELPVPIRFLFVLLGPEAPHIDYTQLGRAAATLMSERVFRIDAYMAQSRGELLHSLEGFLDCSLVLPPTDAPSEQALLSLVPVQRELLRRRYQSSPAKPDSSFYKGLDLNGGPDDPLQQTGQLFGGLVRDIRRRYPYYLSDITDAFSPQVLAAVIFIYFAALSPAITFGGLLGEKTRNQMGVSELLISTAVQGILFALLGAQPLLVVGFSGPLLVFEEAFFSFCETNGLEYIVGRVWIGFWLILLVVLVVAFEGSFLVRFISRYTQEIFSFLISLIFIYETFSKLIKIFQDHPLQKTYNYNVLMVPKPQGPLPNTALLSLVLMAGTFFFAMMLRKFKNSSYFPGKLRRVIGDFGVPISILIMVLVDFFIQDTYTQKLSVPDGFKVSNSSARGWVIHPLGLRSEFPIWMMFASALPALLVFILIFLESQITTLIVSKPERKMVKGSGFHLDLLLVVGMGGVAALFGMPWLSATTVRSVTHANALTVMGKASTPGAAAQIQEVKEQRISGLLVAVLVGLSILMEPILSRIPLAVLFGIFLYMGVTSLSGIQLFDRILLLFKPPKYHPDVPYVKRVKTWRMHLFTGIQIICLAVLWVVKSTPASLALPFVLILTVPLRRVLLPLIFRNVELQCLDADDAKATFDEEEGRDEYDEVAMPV
Experiment: 36Cl exchange flux inhibition in red blood cells, Dixon plots
Assay type: cell-based
Details: for Kd: read-out: Average KoI (SE)

[1] = exp 86, pHo 11.6, sucrose, Clo 30 mM
[2] = exp 86, pHo 11.6, sucrose, Clo 200 mM
[3] = exp N223, pHo 7.2, citrate, Clo 1.05 mM
[4] = exp N223, pHo 7.2, citrate, Clo 2.07 mM
[5] = exp N223, pHo 7.2, citrate, Clo 145 mM
[6] = exp N225, pHo 7.2, citrate, Clo 2.07 mM
[7] = exp N225, pHo 7.2, citrate, Clo 4.14 mM
[8] = exp N225, pHo 7.2, citrate, Clo 130 mM

## [I-].[K+] [iodide, potassium iodide]
Exp 82, pHo 10.6, 0°C, CHES, Cli 138 mM, low Clo 1.7 mM
  ID50 for iodide in the medium with low Cl- concentration: 19.8 mM
Exp 83, pHo 10, 0°C, CHES, Cli 129 mM, low Clo 1.7 mM
  ID50 for iodide in the medium with low Cl- concentration: 6.58 mM
Exp 84, pHo 8.0, 0°C, Hepes, Cli 130 mM, low Clo 0.9 mM
  ID50 for iodide in the medium with low Cl- concentration: 2.05 mM
Exp 85, pHo 7.2, 0°C, Hepes, Cli 133 mM, low Clo 0.3 mM
  ID50 for iodide in the medium with low Cl- concentration: 1.80 mM
Exp 86, pHo 11.6, 0°C, CAPS, Cli 295 mM, low Clo 30 mM
  ID50 for iodide in the medium with low Cl- concentration: 63.3 mM
[1]
  DS·Clo (Dixon slope times [Clo]): 0.2098
  Dixon slope (DS) for Io inhibition of Cl- exchange: 0.00699
  High/low: DS·Clo at the highest [Clo] divided by that at the given [Clo]: 1.12
[2]
  DS·Clo (Dixon slope times [Clo]): 0.2354
  Dixon slope (DS) for Io inhibition of Cl- exchange: 0.00118
Exp 86, pHo 12.4, 0°C, CAPS, Cli 295 mM, low Clo 30 mM
  ID50 for iodide in the medium with low Cl- concentration: 88.5 mM
Exp 86, pHo 12.4, Clo 30 mM
  DS·Clo (Dixon slope times [Clo]): 0.3617
  Dixon slope (DS) for Io inhibition of Cl- exchange: 0.01206
  High/low: DS·Clo at the highest [Clo] divided by that at the given [Clo]: 1.08
Exp 86, pHo 12.4, Clo 200 mM
  DS·Clo (Dixon slope times [Clo]): 0.3918
  Dixon slope (DS) for Io inhibition of Cl- exchange: 0.001959
Exp 87, pHo 11.9, 0°C, CAPS, Cli 294 mM, low Clo 30 mM
  ID50 for iodide in the medium with low Cl- concentration: 83.8 mM
Exp 87, pHo 12.4, 0°C, CAPS, Cli 294 mM, low Clo 30 mM
  ID50 for iodide in the medium with low Cl- concentration: 92.5 mM
Exp 87, pHo 12.4, Clo 30 mM
  DS·Clo (Dixon slope times [Clo]): 0.3492
  Dixon slope (DS) for Io inhibition of Cl- exchange: 0.01164
  High/low: DS·Clo at the highest [Clo] divided by that at the given [Clo]: 0.81
Exp 87, pHo 12.4, Clo 200 mM
  DS·Clo (Dixon slope times [Clo]): 0.2824
  Dixon slope (DS) for Io inhibition of Cl- exchange: 0.001412
Exp 89, pHo 11.9, 0°C, CAPS, Cli 304 mM, low Clo 30 mM
  ID50 for iodide in the medium with low Cl- concentration: 91.8 mM
Exp 89, pHo 12, 0°C, No buffer, Cli 304 mM, low Clo 30 mM
  ID50 for iodide in the medium with low Cl- concentration: 128.5 mM
[3]
  DS·Clo (Dixon slope times [Clo]): 0.0854
  Dixon slope (DS) for Io inhibition of Cl- exchange: 0.081
  High/low: DS·Clo at the highest [Clo] divided by that at the given [Clo]: 3.96
[4]
  DS·Clo (Dixon slope times [Clo]): 0.1048
  Dixon slope (DS) for Io inhibition of Cl- exchange: 0.0506
  High/low: DS·Clo at the highest [Clo] divided by that at the given [Clo]: 3.22
[5]
  DS·Clo (Dixon slope times [Clo]): 0.338
  Dixon slope (DS) for Io inhibition of Cl- exchange: 0.00233
[6]
  DS·Clo (Dixon slope times [Clo]): 0.0724
  Dixon slope (DS) for Io inhibition of Cl- exchange: 0.0349
  High/low: DS·Clo at the highest [Clo] divided by that at the given [Clo]: 3.66
[7]
  DS·Clo (Dixon slope times [Clo]): 0.0907
  Dixon slope (DS) for Io inhibition of Cl- exchange: 0.0219
  High/low: DS·Clo at the highest [Clo] divided by that at the given [Clo]: 2.92
[8]
  DS·Clo (Dixon slope times [Clo]): 0.2652
  Dixon slope (DS) for Io inhibition of Cl- exchange: 0.00204
Our value
  1/R, ratio of dissociation constants alkaline/neutral state: 69
pH 10.6, 1.65 mM [Clo]
  apparent ID50 for I- as an inhibitor of Cl- exchange: 23.6 ± 2.1 mM
pHi and pHo 7.2, 0°C, Cli ~150 mM, media with 5 mM Hepes, Fig. 5
  y intercept of ID50 for Io vs [Clo] (should give KoI): 2.0 ± 0.2 mM
pHo 7.2, 25 mM K3citrate plus sucrose replacing Cl-, Fig. 4B
  y intercept of Dixon slope for Io inhibition vs 1/[Clo]: 0.0017 kg Hb·s·mmol-1·mM-1
pHo 7.2, sucrose replacing Clo, Fig. 4A
  y intercept of Dixon slope for Io inhibition vs 1/[Clo]: 0.006 kg Hb·s·mmol-1·mM-1
pHo 7.2, 0°C
  Kd: 0.83 mM
pHo 8.0, 0°C
  Kd: 0.45 mM
pHo 8.5, 0°C
  Kd: 1.01 mM
pHo 8.66, 0°C
  Kd: 1.26 mM
pHo 9.2, 0°C
  Kd: 2.6 mM
pHo 9.9, 0°C
  Kd: 5.63 mM
pHo 10, 0°C
  Kd: 6.48 mM
pHo 10.6, 0°C
  Kd: 18.4 mM
pHo 10.7, 0°C
  Kd: 16.4 mM
pHo 11.6, 0°C
  Kd: 35.8 mM
pHo 11.9, 0°C
  Kd: 75.6 mM
pHo 12.4, 0°C
  Kd: 73.4 mM
two-titratable-site fit to KoI data
  R = K++I/K+I, ratio of I- dissociation constants for neutral and alkaline forms: 0.0145
